Measured values: patent publication US7700592B2, “α2C adrenoreceptor agonists” (Schering Corporation, priority 2005, dated 2010)

Molecular target: T1, α2C receptor (Homo sapiens, UniProt P18825)
T1 sequence (P18825 1-462): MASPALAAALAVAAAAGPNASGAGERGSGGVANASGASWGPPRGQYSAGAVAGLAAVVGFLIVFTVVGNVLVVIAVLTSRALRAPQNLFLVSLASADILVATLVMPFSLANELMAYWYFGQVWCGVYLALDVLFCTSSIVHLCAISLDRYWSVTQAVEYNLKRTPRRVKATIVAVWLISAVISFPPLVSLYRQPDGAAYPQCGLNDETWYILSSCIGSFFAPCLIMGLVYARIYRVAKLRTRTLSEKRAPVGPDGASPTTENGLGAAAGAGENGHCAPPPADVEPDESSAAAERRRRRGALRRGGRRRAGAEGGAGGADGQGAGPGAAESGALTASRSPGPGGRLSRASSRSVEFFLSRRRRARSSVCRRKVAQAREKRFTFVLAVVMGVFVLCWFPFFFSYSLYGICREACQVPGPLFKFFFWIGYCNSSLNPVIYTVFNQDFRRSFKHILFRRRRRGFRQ
Experiment: GTPγS assay, efficacy agonist activity (Emax) for α2C
Assay type: biochemical
Conditions: active agonist = efficacy at α2C ≧30% Emax; functionally selective = additionally efficacy at α2A ≦30% Emax (GTPγS assay)
From the text: For the purposes of this present invention, a compound is defined to be an active agonist of the α2C receptor subtype if the compound's efficacy at the α2C receptor is ≧30% Emax (GTPγS assay). A compound is a functionally selective agonist of the α2C receptor subtype over the α2A receptor subtype if the compound's efficacy at the α2C receptor is ≧30% Emax (GTPγS assay) and its efficacy at the α2A receptor is ≦30% Emax (GTPγS assay).
Efficacy agonist activity values (Emax, GTPγS assay) for α2C were determined by following the general procedure detailed by Umland et al (“Receptor reserve analysis of the human α2c-adrenoceptor using [^35S]GTPγS and cAMP functional assays” European Journal of Pharmacology 2001, 411, 211-221). For the purposes of the present invention, a compound is defined to be an active agonist of the α2C receptor subtype if the compound's efficacy at the α2C receptor is ≧30% Emax (GTPγS assay). A compound is a functionally selective agonist of the α2C receptor subtype over the α2A receptor subtype if the compound's efficacy at the α2C receptor is […] Emax (GTPγS assay) and its efficacy at the α2A receptor is ≦30% Emax (GTPγS assay).

Compound	Efficacy agonist activity (Emax, GTPγS assay) for α2C: evaluated as active or functionally selective agonist
c1ccc2c(c1)OCCN2Cc1c[nH]cn1 [Compound 1]	active or functionally selective agonists of the α2C receptor subtype
O=[N+]([O-])c1ccc2c(c1)N(Cc1c[nH]cn1)CCO2 [Compound 3D]	active or functionally selective agonists of the α2C receptor subtype
Nc1ccc2c(c1)N(Cc1c[nH]cn1)CCO2 [Compound 3E]	active or functionally selective agonists of the α2C receptor subtype
COC(=O)Nc1ccc2c(c1)N(Cc1c[nH]cn1)CCO2 [Compound 3]	active or functionally selective agonists of the α2C receptor subtype
CNC(=O)Nc1ccc2c(c1)N(Cc1c[nH]cn1)CCO2 [Compound 5]	active or functionally selective agonists of the α2C receptor subtype
COC(=O)N(C)c1ccc2c(c1)N(Cc1c[nH]cn1)CCO2 [Compound 6E]	active or functionally selective agonists of the α2C receptor subtype
CNC(=O)N(C)c1ccc2c(c1)N(Cc1c[nH]cn1)CCO2 [Compound 6]	active or functionally selective agonists of the α2C receptor subtype
CCNC(=O)N(C)c1ccc2c(c1)N(Cc1c[nH]cn1)CCO2 [Compound 7]	active or functionally selective agonists of the α2C receptor subtype
CCOC(=O)N(C)c1ccc2c(c1)N(Cc1c[nH]cn1)CCO2 [Compound 8]	active or functionally selective agonists of the α2C receptor subtype
N#Cc1ccc2c(c1)N(Cc1c[nH]cn1)CCO2 [Compound 12]	active or functionally selective agonists of the α2C receptor subtype
N=C(N)c1ccc2c(c1)N(Cc1c[nH]cn1)CCO2 [Compound 13]	active or functionally selective agonists of the α2C receptor subtype
CSc1ccc2c(c1)N(Cc1c[nH]cn1)CCO2 [Compound 14B]	active or functionally selective agonists of the α2C receptor subtype
CS(=O)(=O)c1ccc2c(c1)N(Cc1c[nH]cn1)CCO2 [Compound 14]	active or functionally selective agonists of the α2C receptor subtype
c1c[nH]c(-c2ccc3c(c2)N(Cc2c[nH]cn2)CCO3)c1 [Compound 15]	active or functionally selective agonists of the α2C receptor subtype
O=[N+]([O-])c1cc(F)c2c(c1)N(Cc1c[nH]cn1)CCO2 [Compound 19D]	active or functionally selective agonists of the α2C receptor subtype
COC(=O)Nc1cc(F)c2c(c1)N(Cc1c[nH]cn1)CCO2 [Compound 19]	active or functionally selective agonists of the α2C receptor subtype
COC(=O)Nc1cc(Cl)c2c(c1)N(Cc1c[nH]cn1)CCO2 [Compound 20]	active or functionally selective agonists of the α2C receptor subtype
COC(=O)Nc1cc2c(cc1F)OCCN2Cc1c[nH]cn1 [Compound 21]	active or functionally selective agonists of the α2C receptor subtype
O=[N+]([O-])c1ccc2c(n1)N(Cc1c[nH]cn1)CCO2 [Compound 22]	active or functionally selective agonists of the α2C receptor subtype
Nc1ccc2c(c1)N(Cc1c[nH]cn1)CCS2 [Compound 24D]	active or functionally selective agonists of the α2C receptor subtype
COC(=O)Nc1ccc2c(c1)N(Cc1c[nH]cn1)CCS2 [Compound 24]	active or functionally selective agonists of the α2C receptor subtype

Compound	Efficacy agonist activity (Emax, GTPγS assay) for α2C: evaluated as active or functionally selective agonist
c1ccc2c(c1)SCCN2Cc1c[nH]cn1 [Compound 25B]	active or functionally selective agonists of the α2C receptor subtype
c1ccc2c(c1)NCCN2Cc1c[nH]cn1 [Compound 26A]	active or functionally selective agonists of the α2C receptor subtype
COC(=O)N1CCN(Cc2c[nH]cn2)c2ccccc21 [Compound 26B]	active or functionally selective agonists of the α2C receptor subtype
CN1CCN(Cc2c[nH]cn2)c2ccccc21 [Compound 26]	active or functionally selective agonists of the α2C receptor subtype
CC(=O)N1CCN(Cc2c[nH]cn2)c2ccccc21 [Compound 27E]	active or functionally selective agonists of the α2C receptor subtype
O=[N+]([O-])c1ccc2c(c1)N(Cc1c[nH]cn1)CCCO2 [Compound 28D]	active or functionally selective agonists of the α2C receptor subtype
COC(=O)Nc1ccc2c(c1)N(Cc1c[nH]cn1)CCCO2 [Compound 28]	active or functionally selective agonists of the α2C receptor subtype
CCOC(=O)Cc1ccc2c(c1)N(Cc1c[nH]cn1)CCO2 [Compound 29]	active or functionally selective agonists of the α2C receptor subtype
O=C(Cc1ccc2c(c1)N(Cc1c[nH]cn1)CCO2)NCc1ccccc1 [Compound 30]	active or functionally selective agonists of the α2C receptor subtype
O=[N+]([O-])c1ccc2c(c1)N(CCc1c[nH]cn1)CCO2 [Compound 37]	active or functionally selective agonists of the α2C receptor subtype
CCN(C(=O)NC)c1ccc2c(c1)N(Cc1c[nH]cn1)CCO2 [Compound 38]	active or functionally selective agonists of the α2C receptor subtype
CNC(=O)N(c1ccc2c(c1)N(Cc1c[nH]cn1)CCO2)C(C)C [Compound 46]	active or functionally selective agonists of the α2C receptor subtype
CNC(=O)Nc1ccc2c(n1)N(Cc1c[nH]cn1)CCO2 [Compound 51]	active or functionally selective agonists of the α2C receptor subtype
CCN(C(=O)OC)c1ccc2c(n1)N(Cc1c[nH]cn1)CCO2 [Compound 53]	active or functionally selective agonists of the α2C receptor subtype
Brc1ccc2c(n1)N(Cc1c[nH]cn1)CCO2 [Compound 54]	active or functionally selective agonists of the α2C receptor subtype
N#Cc1ccc2c(n1)N(Cc1c[nH]cn1)CCO2 [Compound 55]	active or functionally selective agonists of the α2C receptor subtype
COC(=O)Nc1cc(O)c2c(c1)N(Cc1c[nH]cn1)CCO2 [Compound 57]	active or functionally selective agonists of the α2C receptor subtype
CNC(=O)N(C)c1ccc2c(c1)N(CCc1c[nH]cn1)CCO2 [Compound 58]	active or functionally selective agonists of the α2C receptor subtype
CCN(C(=O)OCc1ccnc(N)c1)c1ccc2c(c1)N(Cc1c[nH]cn1)CCO2 [Compound 63]	active or functionally selective agonists of the α2C receptor subtype
CCN(C(=O)n1ccnc1)c1ccc2c(c1)N(Cc1c[nH]cn1)CCO2 [Compound 64A]	active or functionally selective agonists of the α2C receptor subtype
CCN(C(=O)OCc1ccccn1)c1ccc2c(c1)N(Cc1c[nH]cn1)CCO2 [Compound 64]	active or functionally selective agonists of the α2C receptor subtype
